pKi: −log10 of the molar value.
What was measured:
[1] = molecular target: T1, 3-dehydroquinate dehydratase (Helicobacter pylori (strain ATCC 700392 / 26695) (Campylobacterpylori), UniProt Q48255); experiment: (§1) Competitive reversible inhibition of Helicobacter pylori type 2 dehydroquinase expressed in Escherichia coli BL21 (DE3) cells assessed as enone-carboxylate chromophore of 3-dehydroshikimate formation using 3-dehydroquinate as substrate preincubated with enzyme for 3 mins prior to substrate addition by UV spectrophotometric assay
T1 sequence (Q48255 whole entry): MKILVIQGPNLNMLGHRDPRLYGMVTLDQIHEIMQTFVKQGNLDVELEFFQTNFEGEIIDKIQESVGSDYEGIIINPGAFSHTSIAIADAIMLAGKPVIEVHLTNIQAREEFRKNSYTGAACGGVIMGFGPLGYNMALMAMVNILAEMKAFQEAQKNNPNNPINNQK

[2] = molecular target: T2, 3-dehydroquinate dehydratase (Streptomyces coelicolor (strain ATCC BAA-471 / A3(2) / M145), UniProt P15474); experiment: as §1, with “Strepotomyces coelicolor” for “Helicobacter pylori”
T2 sequence (P15474 whole entry): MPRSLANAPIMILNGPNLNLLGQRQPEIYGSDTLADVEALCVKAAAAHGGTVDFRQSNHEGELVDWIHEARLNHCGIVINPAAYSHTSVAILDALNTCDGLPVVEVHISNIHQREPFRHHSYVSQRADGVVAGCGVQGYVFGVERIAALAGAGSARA

[3] = molecular target: T3, 3-dehydroquinate dehydratase (Mycobacterium tuberculosis, UniProt P9WPX7); experiment: as §1, with “Mycobacterium tuberculosis” for “Helicobacter pylori”
T3 sequence (P9WPX7 whole entry): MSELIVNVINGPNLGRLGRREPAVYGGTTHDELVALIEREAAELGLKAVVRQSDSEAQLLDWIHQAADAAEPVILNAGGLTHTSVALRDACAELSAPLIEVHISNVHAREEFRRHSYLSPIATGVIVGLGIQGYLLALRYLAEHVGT

Row | Compound | pKi [1] | pKi [2] | pKi [3]
1 | O=C(O)[C@]1(O)C=C(c2cn(-c3ccc(F)cc3)nn2)[C@@H](O)[C@H](O)C1 | 6.25 | 7.54 | 6.81
2 | O=C(O)[C@]1(O)C=C(c2cn(-c3cccc([N+](=O)[O-])c3)nn2)[C@@H](O)[C@H](O)C1 | 6.27 | 7.11 | 6.64
3 | O=C(O)[C@]1(O)C=C(c2cn(-c3cccnc3)nn2)[C@@H](O)[C@H](O)C1 | 6.43 | 8.24 | 6.87
4 | O=C(O)[C@]1(O)C=C(c2cn(Cc3ccco3)nn2)[C@@H](O)[C@H](O)C1 | 5.66 | 6.66 | 5.67
5 | O=C(O)[C@]1(O)C=C(c2cn(Cc3cccs3)nn2)[C@@H](O)[C@H](O)C1 | 6.03 | 7.14 | 5.80
6 | O=C(O)[C@]1(O)C=C(c2cn(-c3ccccc3O)nn2)[C@@H](O)[C@H](O)C1 | 6.80 | 7.32 | 6.48
7 | O=C(O)[C@]1(O)C=C(c2cn(-c3ccccc3)nn2)[C@@H](O)[C@H](O)C1 | 6.65 | 8.24 | 7.41
8 | O=C(O)c1cccc(-n2cc(C3=C[C@@](O)(C(=O)O)C[C@@H](O)[C@@H]3O)nn2)c1 | 5.24 | 5.76 | 5.51

Reference: ChEMBL document CHEMBL3217657, “Rapid assembly of potent type II dehydroquinase inhibitors viaClick chemistry” (Medchemcomm, 2010)
